Source: USRE47689E1, “Compounds for treating spinal muscular atrophy” (PTC Therapeutics, Inc., priority 2011, dated 2019)
Where two headings read alike, the source gives them in different places.

Assays:
[1] = test system: SMN2 minigene (full length SMN2 minigene mRNA containing SMN2 exon 7); assay: SMN2 minigene mRNA splicing RT-qPCR assay in cultured cells; type: cell-based, human; details: Homo sapiens, HEK293-H, read-out: EC1.5x for production of full length SMN2 mRNA
Outline: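 Full-length SMN2 minigene mRNA (exon 7 included), minigene-specific and not endogenous SMN, quantified by RT-qPCR multiplexed with GAPDH in stably transfected HEK293H cells after 24 h compound exposure at 37° C. Abundance from efficiency-corrected Ct, normalized to GAPDH and vehicle; EC1.5x reported as star bins.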

Smn protein = Smn protein assay in cultured cells (SMN HTRF); type: cell-based, human; details: 48 hours; for maximum fold (Fold) increase of Smn protein: SMA patient fibroblast cells, 7-point concentration data, fold increase relative to vehicle control (SMN HTRF); for EC1.5x (concentration giving 1.5-fold Smn protein increase): SMA Type 1 patient fibroblast cells (GM03813), 7-point concentration curve, SMN HTRF, concentration producing 1.5 times Smn protein vs DMSO vehicle control, read-out: EC1.5x for Smn protein expression
Outline: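 Smn in SMA fibroblast lysates, measured by anti-SMN HTRF after 48 h compound exposure; EC1.5x from fold change over vehicle.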

[2] = HEK293H cells stably transfected with SMN2-A minigene, 24 hours, 7-point concentration curve, 1.5-fold relative to vehicle-treated cells

Row | melting point | Compound | EC (1.5-fold) [1, 2] | maximum fold (Fold) increase of Smn protein (Smn protein) | EC1.5x (concentration giving 1.5-fold Smn protein increase) (Smn protein) | EC (1.5-fold) ([1]; 24 h)
1 | 286 to 288 °C | Cc1ccn2cc(-c3cc4ccc(N5CCCNCC5)cc4oc3=O)nc2n1 [Compound 230, 7-(1,4-diazepan-1-yl)-3-(7-methylimidazo[1,2-a]pyrimidin-2-yl)-2H-chromen-2-one] | 0.3 to 1 µM | *** (fold increase between >1.35 and ≤1.5) |  | 
2 | 235 to 237 °C | COCCN1CCN(c2ccc3cc(-c4cc5cc(C)nc(C)c5o4)c(=O)oc3c2)CC1 [Compound 799, 3-(5,7-dimethylfuro[2,3-c]pyridin-2-yl)-7-[4-(2-methoxyethyl)piperazin-1-yl]-2H-chromen-2-one] | < 0.1 µM | **** (fold increase between >1.5 and ≤1.65) | < 300 nM | 
3 | 241 to 248 °C | Cc1cn2cc(-c3cc4ccc(N5CC[C@H]6CN(C)C[C@H]65)cc4oc3=O)nc2c(C)n1 [Compound 689, 3-(6,8-dimethylimidazo[1,2-a]pyrazin-2-yl)-7-[(3aS,6aS)-5-methylhexahydropyrrolo[3,4-b]pyrrol-1(2H)-yl]-2H-chromen-2-one] | 0.3 to 1 µM | *** (fold increase between >1.35 and ≤1.5) |  | 
4 | 184 to 186 °C | COc1cccn2cc(-c3cc4ccc(N5C[C@@H](C)N[C@@H](C)C5)cc4oc3=O)nc12 [Compound 418, 7-[(3R,5 S)-3,5-dimethylpiperazin-1-yl]-3-(8-methoxyimidazo[1,2-a]pyridin-2-yl)-2H-chromen-2-one] | 1 to 3 µM | **** (fold increase between >1.5 and ≤1.65) | 300 to 1000 nM | 
5 | 165 to 168 °C | CCN(CCO)CCOc1ccc2cc(-c3cn4cc(C)nc(C)c4n3)c(=O)oc2c1 [Compound 938, 3-(6,8-dimethylimidazo[1,2-a]pyrazin-2-yl)-7-{2-[ethyl(2-hydroxyethyl)amino]ethoxy}-2H-chromen-2-one] | < 0.1 µM | ***** (fold increase >1.65) | < 300 nM | 
6 | 155 to 157 °C | CN(C)CCN(C)c1ccc2cc(-c3nc4ccccc4s3)c(=O)oc2c1 [Compound 146, 3-(1,3-benzothiazol-2-yl)-7-{[2-(dimethylamino)ethyl](methyl)amino}-2H-chromen-2-one] | 0.3 to 1 µM | * (maximum fold increase of ≤1.2) |  | 
7 | 230 to 236 °C | Cc1cn2cc(-c3cc4ccc(C5CCN(CCO)CC5)cc4oc3=O)nc2cn1 [Compound 843, 7-[1-(2-hydroxyethyl)piperidin-4-yl]-3-(6-methylimidazo[1,2-a]pyrazin-2-yl)-2H-chromen-2-one] | < 0.1 µM | **** (fold increase between >1.5 and ≤1.65) | < 300 nM | 
8 | 175 to 177 °C | COc1cccc(-c2cc3ccc(N4C[C@@H](C)N[C@@H](C)C4)cc3oc2=O)n1 [Compound 315, 7-[(3R,5S)-3,5-dimethylpiperazin-1-yl]-3-(6-methoxypyridin-2-yl)-2H-chromen-2-one] | 0.3 to 1 µM | * (maximum fold increase of ≤1.2) |  | 
9 | 239 to 241 °C | COc1ccc(-c2cc3c(F)cc(N4C[C@@H]5C[C@H]4CN5)cc3oc2=O)cc1OC [Compound 446, 7-[(1S,4S)-2,5-diazabicyclo[2.2.1]hept-2-yl]-3-(3,4-dimethoxyphenyl)-5-fluoro-2H-chromen-2-one] | 3 to 30 µM | * (maximum fold increase of ≤1.2) |  | 
10 | 210 to 212 °C | Cc1cn2cc(-c3cc4c(F)cc(N5CCCN(C)CC5)cc4oc3=O)nc2cn1 [Compound 591, 5-fluoro-7-(4-methyl-1,4-diazepan-1-yl)-3-(6-methylimidazo[1,2-a]pyrazin-2-yl)-2H-chromen-2-one] | < 0.1 µM | ***** (fold increase >1.65) | < 300 nM | 
11 | 259 to 262 °C | CCCN1CCN(c2ccc3cc(-c4cc5cc(C)nc(C)c5o4)c(=O)oc3c2)CC1 [Compound 815, 3-(5,7-dimethylfuro[2,3-c]pyridin-2-yl)-7-(4-propylpiperazin-1-yl)-2H-chromen-2-one] | < 0.1 µM | **** (fold increase between >1.5 and ≤1.65) | < 300 nM | 
12 | 190 to 196 °C | CCN(C)CCOc1ccc2cc(-c3cn4cc(C)nc(C)c4n3)c(=O)oc2c1 [Compound 937, 3-(6,8-dimethylimidazo[1,2-a]pyrazin-2-yl)-7-{2-[ethyl(methyl)amino]ethoxy}-2H-chromen-2-one] | < 0.1 µM | ***** (fold increase >1.65) | < 300 nM | 
13 | 219 to 223 °C | Cc1cn2cc(-c3cc4ccc(CCCN5CCN(C)CC5)cc4oc3=O)nc2c(C)n1 [Compound 860, 3-(6,8-dimethylimidazo[1,2-a]pyrazin-2-yl)-7-[3-(4-methylpiperazin-1-yl)propyl]-2H-chromen-2-one] | 0.3 to 1 µM | **** (fold increase between >1.5 and ≤1.65) | 1000 to 3000 nM | 
14 | 235 to 237 °C | Cc1ccc2nc(-c3cc4ccc(N5C[C@@H](C)N[C@@H](C)C5)cc4oc3=O)cn2c1 [Compound 174, 7-[(3R,5S)-3,5-dimethylpiperazin-1-yl]-3-(6-methylimidazo[1,2-a]pyridin-2-yl)-2H-chromen-2-one] | < 0.1 µM | *** (fold increase between >1.35 and ≤1.5) |  | 
15 | 261 °C (dec.) | C[C@@H]1CN(c2ccc3cc(-c4cn5ccccc5n4)c(=O)oc3c2)C[C@H](C)N1 [Compound 139, 7-[(3R,5S)-3,5-dimethylpiperazin-1-yl]-3-(imidazo[1,2-a]pyridin-2-yl)-2H-chromen-2-one] | 1 to 3 µM | *** (fold increase between >1.35 and ≤1.5) |  | 
16 | 210 to 215 °C | CCc1nc(C)cn2cc(-c3cc4ccc(N5CCN(C)CC5)cc4oc3=O)nc12 [Compound 830, 3-(8-ethyl-6-methylimidazo[1,2-a]pyrazin-2-yl)-7-(4-methylpiperazin-1-yl)-2H-chromen-2-one] | < 0.1 µM | ***** (fold increase >1.65) | < 300 nM | 
17 | 205 to 207 °C | CCN(CC)C1CCN(c2ccc3cc(-c4cn5cc(C)nc(C)c5n4)c(=O)oc3c2)CC1 [Compound 922, 7-[4-(diethylamino)piperidin-1-yl]-3-(6,8-dimethylimidazo[1,2-a]pyrazin-2-yl)-2H-chromen-2-one] | < 0.1 µM | *** (fold increase between >1.35 and ≤1.5) | 300 to 1000 nM | 
18 | 270 to 273 °C | C[C@@H]1CN(c2ccc3cc(-c4cn5cc(Cl)sc5n4)c(=O)oc3c2)C[C@H](C)N1 [Compound 473, 3-(2-chloroimidazo[2,1-b][1,3]thiazol-6-yl)-7-[(3R,5S)-3,5-dimethylpiperazin-1-yl]-2H-chromen-2-one] | 0.1 to 0.3 µM | ** (fold increase between >1.2 and ≤1.35) |  | 
19 | 234 to 244 °C | Cc1ccn2cc(-c3cc4ccc(N5CCN[C@@H](C)C5)cc4oc3=O)nc2c1 [Compound 213, 3-(7-methylimidazo[1,2-a]pyridin-2-yl)-7-[(3S)-3-methylpiperazin-1-yl]-2H-chromen-2-one] | 0.1 to 0.3 µM | *** (fold increase between >1.35 and ≤1.5) |  | 
20 | 250 to 256 °C | COc1ccn2cc(-c3cc4ccc(N5CCN[C@@H](C)C5)cc4oc3=O)nc2c1 [Compound 434, 3-(7-methoxyimidazo[1,2-a]pyridin-2-yl)-7-[(3S)-3-methylpiperazin-1-yl]-2H-chromen-2-one] | 1 to 3 µM | ** (fold increase between >1.2 and ≤1.35) |  | 
21 | 228 to 230 °C | CCN1CCN(c2ccc3cc(-c4cn5cc(Cl)nc(C)c5n4)c(=O)oc3c2)CC1 [Compound 766, 3-(6-chloro-8-methylimidazo[1,2-a]pyrazin-2-yl)-7-(4-ethylpiperazin-1-yl)-2H-chromen-2-one] | < 0.1 µM | *** (fold increase between >1.35 and ≤1.5) |  | 

Row | Compound | melting point | EC (1.5-fold) [1, 2] | maximum fold (Fold) increase of Smn protein (Smn protein) | EC1.5x (concentration giving 1.5-fold Smn protein increase) (Smn protein) | EC (1.5-fold) ([1]; 24 h)
22 | O=c1oc2c(F)c(N3CCNCC3)ccc2cc1-c1ccccn1 [Compound 155, 8-fluoro-7-(piperazin-1-yl)-3-(pyridin-2-yl)-2H-chromen-2-one] | 147 to 153 °C |  | * (maximum fold increase of ≤1.2) |  | 3 to 30 µM
23 | O=c1oc2cc(N3CCNCC3)ccc2cc1-c1cnccc1Cl [Compound 235, 3-(4-chloropyridin-3-yl)-7-(piperazin-1-yl)-2H-chromen-2-one] | 175 to 177 °C |  | * (maximum fold increase of ≤1.2) |  | 1 to 3 µM
